Test results from US11168073B2, “3,3-difluoroallylamines or salts thereof and pharmaceutical compositions comprising the same” (YUHAN CORPORATION, priority 2018, dated 2021).
Structures can show the parent of a compound that is named as a salt. Where two headings read alike, the source gives them in different places.

Key:
Assay type in all cases: biochemical
[1] = biological target: T1, recombinant human MAO-A (monoamine oxidase-A) (Homo sapiens, UniProt P21397); assay: Activity evaluation on recombinant human MAO-A (Amplex Red/HRP-coupled assay, 0.5 mM tyramine substrate); conditions: read-out: Inhibitory Activity (IC50, nM) MAO-A
T1 construct: purchased Sigma-Aldrich
T1 sequence (P21397 1-527): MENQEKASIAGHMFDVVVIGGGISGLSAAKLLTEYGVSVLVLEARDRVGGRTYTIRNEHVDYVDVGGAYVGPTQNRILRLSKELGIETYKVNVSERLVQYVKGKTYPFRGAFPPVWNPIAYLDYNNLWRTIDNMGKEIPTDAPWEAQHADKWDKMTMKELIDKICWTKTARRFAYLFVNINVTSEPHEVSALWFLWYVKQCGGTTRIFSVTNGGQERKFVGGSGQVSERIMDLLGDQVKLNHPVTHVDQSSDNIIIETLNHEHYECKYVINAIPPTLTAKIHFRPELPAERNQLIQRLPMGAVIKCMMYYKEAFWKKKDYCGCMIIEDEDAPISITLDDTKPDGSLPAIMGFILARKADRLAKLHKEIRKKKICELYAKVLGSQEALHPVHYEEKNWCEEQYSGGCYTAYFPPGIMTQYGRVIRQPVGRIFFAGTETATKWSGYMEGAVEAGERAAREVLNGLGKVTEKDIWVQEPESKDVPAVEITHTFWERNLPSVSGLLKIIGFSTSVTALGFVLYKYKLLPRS
Method in brief: (§1)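 Using an HRP-coupled Amplex Red readout (544/590 nm, kinetic over 1–2 h), IC50 values were fitted by 4-parameter logistic model to percent decrease in signal rate against DMSO control. Compounds (1:3 dilutions, 8 points, <1% DMSO) sat 30 min at 37 °C with enzyme in pH 7.4 phosphate buffer before substrate, 200 uM Amplex Red and HRP were added.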

[2] = biological target: T2, recombinant human MAO-B (monoamine oxidase-B) (Homo sapiens, UniProt P27338); assay: Activity evaluation on recombinant human MAO-B (Amplex Red/HRP-coupled assay, 1 mM benzylamine substrate); conditions: read-out: Inhibitory Activity (IC50, nM) MAO-B
T2 construct: purchased Sigma-Aldrich
T2 sequence (P27338 1-520): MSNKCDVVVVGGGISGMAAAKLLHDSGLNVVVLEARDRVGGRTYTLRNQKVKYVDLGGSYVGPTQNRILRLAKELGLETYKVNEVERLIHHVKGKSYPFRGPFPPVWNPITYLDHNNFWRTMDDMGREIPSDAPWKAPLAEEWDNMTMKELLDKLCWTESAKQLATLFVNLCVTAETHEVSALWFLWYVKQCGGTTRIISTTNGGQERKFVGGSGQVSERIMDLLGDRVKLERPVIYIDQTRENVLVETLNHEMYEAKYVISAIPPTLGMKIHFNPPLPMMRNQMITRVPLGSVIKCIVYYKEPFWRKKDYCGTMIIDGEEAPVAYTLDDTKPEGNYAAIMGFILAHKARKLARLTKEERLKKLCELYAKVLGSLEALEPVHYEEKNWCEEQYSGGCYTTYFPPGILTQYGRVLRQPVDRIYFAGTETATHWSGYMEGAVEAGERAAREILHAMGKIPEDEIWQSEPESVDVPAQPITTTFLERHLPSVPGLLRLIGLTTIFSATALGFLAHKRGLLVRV
Method in brief: as §1

[3] = biological target: T3, recombinant human DAO (diamine oxidase) (Homo sapiens, UniProt P19801); assay: Activity evaluation on recombinant human DAO (Amplex Red/HRP-coupled assay, 1 mM putrescine substrate); conditions: read-out: Inhibitory Activity (IC50, nM) DAO
T3 construct: purchased R&D systems
T3 sequence (P19801 20-751): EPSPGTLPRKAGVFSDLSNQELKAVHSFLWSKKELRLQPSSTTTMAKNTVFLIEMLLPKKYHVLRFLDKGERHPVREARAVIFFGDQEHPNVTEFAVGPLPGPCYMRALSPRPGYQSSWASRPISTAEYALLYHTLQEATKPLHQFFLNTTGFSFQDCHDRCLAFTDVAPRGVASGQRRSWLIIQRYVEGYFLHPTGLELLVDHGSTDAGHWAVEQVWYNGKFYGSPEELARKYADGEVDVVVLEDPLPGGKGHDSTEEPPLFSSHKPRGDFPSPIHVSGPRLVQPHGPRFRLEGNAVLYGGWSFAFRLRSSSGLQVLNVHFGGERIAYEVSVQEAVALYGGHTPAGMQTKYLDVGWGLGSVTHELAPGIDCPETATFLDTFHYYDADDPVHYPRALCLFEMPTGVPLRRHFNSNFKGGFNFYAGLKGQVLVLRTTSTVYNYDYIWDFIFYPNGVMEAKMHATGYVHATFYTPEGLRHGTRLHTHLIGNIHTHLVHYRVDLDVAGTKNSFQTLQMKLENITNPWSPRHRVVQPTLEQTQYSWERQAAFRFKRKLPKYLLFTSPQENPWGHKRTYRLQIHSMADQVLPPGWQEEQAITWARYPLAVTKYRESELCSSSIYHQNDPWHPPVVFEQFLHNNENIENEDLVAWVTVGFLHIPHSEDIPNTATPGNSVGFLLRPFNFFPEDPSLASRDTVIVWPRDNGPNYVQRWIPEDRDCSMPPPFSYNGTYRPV
Method in brief: as §1

recombinant human VAP-1 = biological target: T4, recombinant human VAP-1 (Homo sapiens, UniProt Q16853); assay: Activity evaluation on recombinant human VAP-1 (Amplex Red/HRP-coupled hydrogen peroxide assay, benzylamine substrate); conditions: read-out: Inhibitory Activity (IC50, nM) human VAP-1
T4 construct: purchased R&D systems
T4 sequence (Q16853 1-763): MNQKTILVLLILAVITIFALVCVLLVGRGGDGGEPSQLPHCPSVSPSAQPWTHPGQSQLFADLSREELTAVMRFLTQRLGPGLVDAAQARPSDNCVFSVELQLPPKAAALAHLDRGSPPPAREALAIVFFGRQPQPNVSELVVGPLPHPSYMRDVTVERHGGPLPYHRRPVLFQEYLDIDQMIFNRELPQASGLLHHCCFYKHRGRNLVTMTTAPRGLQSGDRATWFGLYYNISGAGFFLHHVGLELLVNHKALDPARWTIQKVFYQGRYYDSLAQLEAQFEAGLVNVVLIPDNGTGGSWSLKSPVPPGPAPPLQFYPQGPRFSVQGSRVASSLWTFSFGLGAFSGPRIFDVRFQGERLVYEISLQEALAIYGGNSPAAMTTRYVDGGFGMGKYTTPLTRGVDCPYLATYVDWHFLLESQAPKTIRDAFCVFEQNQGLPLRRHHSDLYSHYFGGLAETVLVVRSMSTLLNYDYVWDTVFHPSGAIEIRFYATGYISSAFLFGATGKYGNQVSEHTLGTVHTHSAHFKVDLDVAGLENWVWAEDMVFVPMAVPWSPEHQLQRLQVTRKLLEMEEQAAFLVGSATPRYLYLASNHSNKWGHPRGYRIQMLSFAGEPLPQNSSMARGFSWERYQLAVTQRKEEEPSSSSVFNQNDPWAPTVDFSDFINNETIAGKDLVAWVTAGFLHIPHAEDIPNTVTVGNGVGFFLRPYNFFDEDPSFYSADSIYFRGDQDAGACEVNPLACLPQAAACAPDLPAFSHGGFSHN
Method in brief: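 Hydrogen peroxide from benzylamine (1 mM) oxidation by human recombinant VAP-1 detected via HRP-coupled Amplex Red (200 uM) fluorescence, kinetic over 1–2 h. Enzyme and compound preincubated 30 min at 37 °C, pH 7.4 phosphate; 8-point dose response, signal-rate decrease versus DMSO control fitted to four-parameter logistic for IC50.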

[4] = recombinant human VAP-1, 30 min preincubation at 37° C., 1 mM benzylamine
[5] = recombinant human VAP-1, benzylamine substrate

Structure (SMILES)	IC50 ([1]; 0.5 mM tyramine) [nM]	IC50 ([2]; 1 mM benzylamine) [nM]	IC50 ([3]; 1 mM putrescine) [nM]	IC50 (recombinant human VAP-1; [4]) [nM]	IC50 ([1]; 0.5 mM tyramine substrate) [nM]	IC50 ([2]; 1 mM benzylamine substrate) [nM]	IC50 ([3]; 1 mM putrescine substrate) [nM]	IC50 (recombinant human VAP-1; [5]) [nM]
NCC(Cn1ncn(Cc2ccc(C#Cc3ccc4c(c3)CCC(=O)N4)s2)c1=O)=C(F)F [Example 165, 6-[2-[5-[[1-[2-(aminomethyl)-3,3-difluoro-allyl]-5-oxo-1,2,4-triazol-4-yl]methyl]-2-thienyl]ethynyl]-3,4-dihydro-1H-quinolin-2-one Trifluoroacetate]	> 100000	5900	> 10000	0.5				
NCC(Cn1ncn(Cc2ccc(C#Cc3ccc4c(n3)OCCN4)s2)c1=O)=C(F)F [Example 168, 2-[2-(aminomethyl)-3,3-difluoro-allyl]-4-[[5-[2-(2,3-dihydro-1H-pyrido[2,3-b][1,4]oxazin-6-yl)ethynyl]-2-thienyl]methyl]-1,2,4-triazol-3-one Ditrifluoroacetate]	> 10000	45000	> 100000	1				
CNC(=O)c1ccc(-c2ccc(Cn3cnn(CC(CN)=C(F)F)c3=O)s2)cc1 [Example 104, 4-[5-[[1-[2-(aminomethyl)-3,3-difluoro-allyl]-5-oxo-1,2,4-triazol-4-yl]methyl]-2-thienyl]-N-methyl-benzamide trifluoroacetate]	> 100000	> 10000	31000	0.5				
CCn1cc(-c2cnc(-n3cnn(CC(CN)=C(F)F)c3=O)c(F)c2)cn1 [Example 88, 2-[2-(aminomethyl)-3,3-difluoro-allyl]-4-[5-(1-ethylpyrazol-4-yl)-3-fluoro-2-pyridyl]-1,2,4-triazol-3-one Trifluoroacetate]	> 100000	8200	230	0.3				
NCC(Cn1ncn(Cc2ccc(-c3cc(F)c4c(c3)CCC(=O)N4)s2)c1=O)=C(F)F [Example 136, 6-[5-[[1-[2-(aminomethyl)-3,3-difluoro-allyl]-5-oxo-1,2,4-triazol-4-yl]methyl]-2-thienyl]-8-fluoro-3,4-dihydro-1H-quinolin-2-one Trifluoroacetate]	> 100000	> 100000	> 100000	0.4				
NCC(Cn1ncn(Cc2cc(-c3cccc(-c4nc[nH]n4)c3)cs2)c1=O)=C(F)F [Example 196, 2-[2-(aminomethyl)-3,3-difluoro-allyl]-4-[[4-[3-(1H-1,2,4-triazol-3-yl)phenyl]-2-thienyl]methyl]-1,2,4-triazol-3-one Trifluoroacetate]					> 100000	2900	1900	1.4
NCC(Cn1ncn(Cc2ccc(-c3ccc(N4CCNCC4)cc3)s2)c1=O)=C(F)F [Example 106, 2-[2-(aminomethyl)-3,3-difluoro-allyl]-4-[[5-(4-piperazin-1-ylphenyl)-2-thienyl]methyl]-1,2,4-triazol-3-one Ditrifluoroacetate]	> 100000	> 100000	860	4.7				
NCC(Cn1ncn(Cc2ccc(-c3cnc(N)nc3)s2)c1=O)=C(F)F [Example 116, 2-[2-(aminomethyl)-3,3-difluoro-allyl]-4-[[5-(2-aminopyrimidin-5-yl)-2-thienyl]methyl]-1,2,4-triazol-3-one Trifluoroacetate]	> 100000	> 10000	> 100000	1.4				

Continued, values first:

IC50 ([1]; 0.5 mM tyramine) [nM]	IC50 ([2]; 1 mM benzylamine) [nM]	IC50 ([3]; 1 mM putrescine) [nM]	IC50 (recombinant human VAP-1; [4]) [nM]	IC50 ([1]; 0.5 mM tyramine substrate) [nM]	IC50 ([2]; 1 mM benzylamine substrate) [nM]	IC50 ([3]; 1 mM putrescine substrate) [nM]	IC50 (recombinant human VAP-1; [5]) [nM]	Structure (SMILES)
				> 100000	11000	> 100000	0.5	Cc1cc(-c2ccc3sc(N)nc3c2)cnc1-n1cnn(CC(CN)=C(F)F)c1=O [Example 226, 4-[5-(2-amino-1,3-benzothiazol-5-yl)-3-methyl-2-pyridyl]-2-[2-(aminomethyl)-3,3-difluoro-allyl]-1,2,4-triazol-3-one Trifluoroacetate]
				> 100000	> 100000	4860	307	CN(C)c1ccc(-c2ccccc2Cn2cnn(CC(CN)=C(F)F)c2=O)cn1 [Example 281, 2-[2-(aminomethyl)-3,3-difluoro-allyl]-4-[[2-[6-(dimethylamino)-3-pyridyl]phenyl]methyl]-1,2,4-triazol-3-one Trifluoroacetate]
				> 100000	> 100000	330	9.1	NCC(Cn1ncn(Cc2ccc(-c3ccc(N4CCNCC4)cc3)cc2)c1=O)=C(F)F [Example 266, 2-[2-(aminomethyl)-3,3-difluoro-allyl]-4-[[4-(4-piperazin-1-ylphenyl)phenyl]methyl]-1,2,4-triazol-3-one Ditrifluoroacetate]
				89900	42400	> 100000	2.5	CN(C)c1ccc(-c2ccc3sc(Cn4cnn(CC(CN)=C(F)F)c4=O)cc3c2)cn1 [Example 208, 2-[2-(aminomethyl)-3,3-difluoro-allyl]-4-[[5-[6-(dimethylamino)-3-pyridyl]benzothiophen-2-yl]methyl]-1,2,4-triazol-3-one Trifluoroacetate]
